Data from publication PMC8160210, “Single tryptophan Y160W mutant of homooligomeric E. coli purine nucleoside phosphorylase implies that dimers forming the hexamer are functionally not equivalent” (Scientific Reports, 2021).

Legend:
WT E. coli PNP [1] = target: T1, WT E. coli PNP (Escherichia coli, UniProt P0ABP8); parameters: method as in PMID 21672603; conditions: pH 7.0, 50 mM Hepes, 25 °C, 50 mM phosphate; cited from earlier work
T1 construct: made in house
T1 sequence (P0ABP8 2-239 limits assumed): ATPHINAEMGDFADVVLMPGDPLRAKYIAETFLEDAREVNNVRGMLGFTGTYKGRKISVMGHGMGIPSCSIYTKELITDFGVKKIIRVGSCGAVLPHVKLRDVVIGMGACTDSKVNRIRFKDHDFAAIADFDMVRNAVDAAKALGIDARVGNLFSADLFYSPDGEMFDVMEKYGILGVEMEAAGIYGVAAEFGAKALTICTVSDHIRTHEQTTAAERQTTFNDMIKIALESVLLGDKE

Y160W PNP mutant [2] = target: T2, Y160W PNP mutant (Escherichia coli, UniProt P0ABP8, Y161W); test: Enzymatic specific activity, spectrophotometric assay; assay type: biochemical, E. coli; parameters: made in house; host or cells: E. coli DH5α-T1; conditions: pH 7.0, 50 mM Hepes, 25 °C, 50 mM phosphate; for Enzymatic specific activity relative to WT: Y160W vs WT; for Enzymatic specific activity: Y160W
Procedure: (§1) All activity measurements and kinetic studies were done in 50 mM Hepes/HCl buffer pH 7.0 at 25 °C as previously described for the WT E. coli PNP and its active-site mutants, using direct spectrophotometric assay for adenosine, guanosine and 7-methylguanosine as substrates, and a coupled assay with xanthine oxidase in the case of inosine[13],[28],[29]. Activity measurements were performed for each protein sample, before and after each experiment as a control of the state of the protein.

WT E. coli PNP [3] = target: T1, WT E. coli PNP; test: as above; assay type: biochemical; conditions: WT PNP (reference = 100); pH 7.0, 50 mM Hepes, 25 °C, 50 mM phosphate
Procedure: as §1

WT E. coli PNP [4] = target: T1, WT E. coli PNP; parameters: method as in PMID 30337572; conditions: m^7Guo as variable substrate, 50 mM phosphate, Michaelis–Menten; cited from earlier work
WT E. coli PNP [5] = target: T1, WT E. coli PNP; test: Kinetic studies with variable substrate; assay type: biochemical; conditions: nucleoside as variable substrate, 50 mM phosphate, Michaelis–Menten, pH 7.0, 25 °C
Procedure: as §1
(§2) The classical Michaelis–Menten equation was fitted to the kinetic curves (i.e. initial rate of the reaction, v0, vs. initial substrate concentration, c0):1 v0c0=Vmax1c0/c0+KM1
(§3) Coefficients a and b express the degree of cooperation between the subunits in a dimer, while constants KM1 and Vmax1 characterize the active sites of the enzyme when the neighbouring site is free.
(§4) A more complex model was used if there was a statistically significant decrease in the residual sum of squares as judged by the F test at 95% confidence level.

Y160W PNP mutant [6] = target: T2, Y160W PNP mutant; conditions: nucleoside as variable substrate, 50 mM phosphate, Michaelis–Menten, pH 7.0, 25 °C
Procedure: Activity measurements were performed for each protein sample, before and after each experiment as a control of the state of the protein.
as §2, §3, §4

[7] = test system: Nc1nc2c(ncn2[C@@H]2O[C@H](CO)[C@@H](O)[C@H]2O)c(=O)[nH]1; test: purified protein, by the assay type; conditions: other: Y160W, nucleoside as variable substrate, 50 mM phosphate, Michaelis–Menten, pH 7.0, 25 °C
[8] = substrate: Nc1nc2c(ncn2[C@@H]2O[C@H](CO)[C@@H](O)[C@H]2O)c(=O)[nH]1; test: Kinetic studies with variable substrate; assay type: biochemical, E. coli; conditions: other: WT, nucleoside as variable substrate, 50 mM phosphate, Michaelis–Menten, pH 7.0, 25 °C
Procedure: as §1, §2, §3, §4

T2 sequence (P0ABP8 2-239 Y161W): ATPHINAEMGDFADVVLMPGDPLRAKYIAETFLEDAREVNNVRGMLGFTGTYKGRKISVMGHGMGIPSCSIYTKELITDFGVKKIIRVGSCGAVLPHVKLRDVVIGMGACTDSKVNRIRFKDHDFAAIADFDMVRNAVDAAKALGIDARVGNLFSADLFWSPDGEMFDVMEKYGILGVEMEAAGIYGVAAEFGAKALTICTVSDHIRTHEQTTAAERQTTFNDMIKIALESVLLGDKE

Nc1ncnc2c1ncn2[C@@H]1O[C@H](CO)[C@@H](O)[C@H]1O [Ado, Adenosine]
Enzymatic specific activity (WT E. coli PNP [1]): 58.5 ± 5.9 U/mg
Enzymatic specific activity relative to WT (Y160W PNP mutant [2]): 112%
Enzymatic specific activity (Y160W PNP mutant [2]): 65.6 ± 14.2 U/mg
Enzymatic specific activity relative to WT (WT E. coli PNP [3]): 100%

Nc1nc2c(ncn2[C@@H]2O[C@H](CO)[C@@H](O)[C@H]2O)c(=O)[nH]1 [Guo, Guanosine]
Enzymatic specific activity (WT E. coli PNP [1]): 60.4 ± 6.7 U/mg
Enzymatic specific activity relative to WT (Y160W PNP mutant [2]): 60%
Enzymatic specific activity (Y160W PNP mutant [2]): 36.2 ± 2.0 U/mg
Enzymatic specific activity relative to WT (WT E. coli PNP [3]): 100%

O=c1[nH]cnc2c1ncn2[C@@H]1O[C@H](CO)[C@@H](O)[C@H]1O [Ino, Inosine]
Enzymatic specific activity (WT E. coli PNP [1]): 103.2 ± 4.0 U/mg
Enzymatic specific activity relative to WT (Y160W PNP mutant [2]): 88%
Enzymatic specific activity (Y160W PNP mutant [2]): 91.1 ± 8.9 U/mg
Enzymatic specific activity relative to WT (WT E. coli PNP [3]): 100%

C[n+]1cn([C@@H]2O[C@H](CO)[C@@H](O)[C@H]2O)c2nc(N)[nH]c(=O)c21 [m^7Guo, 7-Methylguanosine]
Enzymatic specific activity (WT E. coli PNP [1]): 21.4 ± 1.6 U/mg
Km (WT E. coli PNP [4]): 27.2 µM
Vmax (WT E. coli PNP [5]): 22.7 ± 0.3 U/mg
Km (Y160W PNP mutant [6]): 71.3 ± 3 µM
Vmax (Y160W PNP mutant [6]): 21 ± 1 U/mg
Enzymatic specific activity relative to WT (Y160W PNP mutant [2]): 108%
Enzymatic specific activity (Y160W PNP mutant [2]): 23.2 ± 1.2 U/mg
Enzymatic specific activity relative to WT (WT E. coli PNP [3]): 100%

Y160W PNP mutant (Escherichia coli K-12; Y161W)
Km [7]: 128 ± 2 µM
Vmax [7]: 42.8 ± 0.3 U/mg

B1: WT E. coli PNP (Escherichia coli K-12) (protein)
chain: T1 sequence (P0ABP8 2-239 limits assumed)
notes: made in house
Km [8]: 28 ± 4 µM
Vmax [8]: 51.1 ± 2.3 U/mg
